This note sets out measurements from patent US20230174556A1, “COMPOUNDS AS PROTEIN KINASE INHIBITORS” (Fochon Biosciences, Ltd., priority 2020, published 2023).

Each structure is given as a SMILES string.

The first assay concerns OCI-LY10 (PI3Kδ dependent) cells. The experiment in a line: OCI-LY10 cell proliferation assay (MTS). The format is cell-based. To be noted: Homo sapiens, OCI-Ly10, 72 h, inhibition of OCI-LY10 cells proliferation, 72 h incubation, MTS readout at 490 nm. The procedure: MTS testing kit was purchased from Promega (Madison, WI, USA). The RPMI-1640, Fetal bovine serum and Penicillin-Streptomycin were purchased from BI (Biological Industries, Beit Haemek, Israel). Dimethyl sulfoxide (DMSO) was purchased from Sigma (St. Louis., MO, USA). OCI-LY10 cells were cultured in RPMI1640 supplemented with Penicillin-Streptomycin and 10% FBS.
To investigate whether a compound is able to inhibit the activity of PI3Kδ in cells, a mechanism-based assay using OCI-LY10 (PI3Kδ dependent) cells was developed. In this assay, inhibition of PI3Kδ was detected by the inhibition of OCI-LY10 cells proliferation. Cells were plated into 96-well plates at a density of 10000 cells/well. Plates were incubated at 37° C., with 5 % CO2 for 4 h. Compounds were serially diluted and added to the plates with the final compound concentrations as 10000, 3333.3, 1111.1, […], 123.5, 41.2, 13.7, 4.6 and 1.5 nM. Plates were incubated at 37° C., with 5 % CO2 for 72 h. 20 µl MTS was added into each well and the plates were incubated at 37° C., with 5 % CO2 for exactly 2 h. The absorbance was measured by a microplate reader at 490 nm. IC50 was calculated using GraphPad Prism 5.0 software.
Compound `Cc1csc2cc([C@H](C)n3nc(-c4ccc(OC(F)F)c(F)c4)c4c(N)ncnc43)c(-c3ccccc3)c(=O)n12` [Example 15, (S)-7-(1-(4-amino-3-(4-(difluoromethoxy)-3-fluorophenyl)-1H-pyrazolo[3,4-d]pyrimidin-1-yl)ethyl)-3-methyl-6-ph enyl-5H-thiazolo[3,2-a]pyridin-5-one] had a 50% inhibitory concentration (IC50) of 1 nM.
For `COc1ccc(-c2nn([C@@H](C)c3cc4scc(C)n4c(=O)c3-c3ccccc3)c3ncnc(N)c23)cc1NS(C)(=O)=O` [Example 6, (S)-N-(5-(4-amino-1-(1-(3-methyl-5-oxo-6-phenyl-5H-thiazolo[3,2-a]pyridin-7-yl)ethyl)-1H-pyrazolo[3,4-d]pyrimidin-3-yl)-2-methoxyphenyl)meth anesulfonamide], half-maximal inhibition (IC50) was put at 1 nM.
The same measure, in the same setting: under `COc1ncc(-c2nn([C@@H](C)c3cc4scc(Cl)n4c(=O)c3-c3cccc(F)c3)c3ncnc(N)c23)cc1NS(C)(=O)=O` [Example 79, (S)-N-(5-(4-amino-1-(1-(3-chloro-6-(3-fluorophenyl)-5-oxo-5H-thiazolo[3,2-a]pyridin-7-yl)ethyl)-1H-pyrazolo[3,4-d]pyrimidin-3-yl)-2-methoxypyridin-3-yl)methanesulfonamide] stands 2 nM.
Still for that read-out and setting: the same measure for `COc1ccc(-c2nn([C@@H](C)c3cc4scc(C)n4c(=O)c3-c3cccc(F)c3)c3ncnc(N)c23)cc1NS(C)(=O)=O` [Example 5, (S)-N-(5-(4-amino-1-(1-(6-(3-fluorophenyl)-3-methyl-5-oxo-5H-thiazolo[3,2-a]pyridin-7-yl)ethyl)-1H-pyrazolo[3,4-d]pyrimidin-3-yl)-2-methoxyphenyl)methanesulfonamide]: 1 nM; for `CC(C)Oc1ccc(-c2nn([C@H](c3cc4scc(Cl)n4c(=O)c3-c3cccc(F)c3)C3CC3)c3ncnc(N)c23)cc1F` [Example 11, (S)-7-((4-amino-3-(3-fluoro-4-isopropoxyphenyl)-1H-pyrazolo[3,4-d]pyrimidin-1-yl)(cyclopropyl)methyl)-3-chlor o-6-(3-fluorophenyl)-5H-thiazolo[3,2-a]pyridin-5-one]: 1 nM.

The same assay, now with this note: inhibition of OCI-LY10 cells proliferation, 72 h incubation, MTS readout at 490 nm.
As for `Cc1csc2cc([C@H](C)n3nc(-c4cnc(OC(C)C)nc4)c4c(N)ncnc43)c(-c3ccccc3)c(=O)n12` [Example 88, (S)-7-(1-(4-amino-3-(2-isopropoxypyrimidin-5-yl)-1H-pyrazolo[3,4-d]pyrimidin-1-yl)ethyl)-3-methyl-6-phenyl-5H-thiazolo[3,2-α]pyridin-5-one], inhibition was half-maximal at 34 nM (IC50).
Same read-out and setting: under `COc1ncc(-c2nn([C@@H](C)c3cc4scc(C)n4c(=O)c3-c3cccc(F)c3)c3ncnc(N)c23)cc1NS(C)(=O)=O` [Example 77, (S)-N-(5-(4-amino-1-(1-(6-(3-fluorophenyl)-3-methyl-5-oxo-5H-thiazolo[3,2-a]pyridin-7-yl)ethyl)-1H-pyrazolo[3,4-d]pyrimidin-3-y1)-2-methoxypyridin-3-yl)methanesulfonamide] stands 1 nM; under `Cc1csc2nc([C@H](C)n3nc(-c4cnc(OC(C)C)c(C#N)c4)c4c(N)ncnc43)c(-c3cccc(F)c3)c(=O)n12` [Example 106, (S)-5-(4-amino-1-(1-(6-(3-fluoropheny 1)-3-methyl-5-oxo-5H-thiazolo[3,2-α]pyrimidin-7-yl)ethyl)-1H-pyrazolo[3,4-d]pyrimidin-3-yl)-2-isopropoxynicotin onitrile], 43 nM; under `Cc1csc2cc([C@H](C)n3nc(-c4ccc(OC5CC5)c(F)c4)c4c(N)ncnc43)c(-c3ccccc3)c(=O)n12` [Example 17, (S)-7-(1-(4-amino-3-(4-cyclopropoxy-3-fluoropheny1)-1H-pyrazolo[3,4-d]pyrimidin-1-yl)ethyl)-3-methyl-6-phenyl-5H-thiazolo[3,2-a]pyridin-5-one], 65 nM.
Same read-out and setting: under `CC(C)Oc1ccc(-c2nn([C@@H](C)c3cc4scc(Cl)n4c(=O)c3-c3cccc(F)c3)c3ncnc(N)c23)cc1C#N` [Example 85, (S)-5-(4-amino-1-(1-(3-chloro-6-(3-fluorophenyl)-5-oxo-5H-thiazolo[3,2-α]pyridin-7-yl)ethyl)-1H-pyrazolo[3,4-d]pyrimidin-3-yl)-2-isopropoxybenzonitrile] stands 8 nM.
Regarding `Cc1csc2cc([C@H](C)n3nc(-c4cnc(OC(C)C)c(C#N)c4)c4c(N)ncnc43)c(-c3ccccc3)c(=O)n12` [Example 96, (S)-5-(4-amino-1-(1-(3-methyl-5-oxo-6-phenyl-5H-thiazolo[3,2-α]pyridin-7-yl)ethyl)-1H-pyrazolo[3,4-d]pyrimidin-3-yl)-2-isopropoxynicotinonitrile], the IC50 came to 21 nM.
